Values after ≈ are worked out from the molar mass of the structure shown. Where a SMILES comes first, the peptide text is derived from it.
What was measured:
E. coli [1] = assay: MIC of antibiotic during combined treatment with antimicrobial peptide; type: cell-based, Escherichia coli; settings: for Antibiotic MIC, Erythromycin / Antibiotic MIC, Linezolid / Antibiotic MIC, Vancomycin: E. coli
How it was run: (§1)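 MIC values for mixed peptide plus antibiotic solutions were measured in MH medium.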

E. coli [2] = assay: microbe, parasite or virus in culture; type: cell-based, Escherichia coli; settings: for Minimal inhibitory concentration MIC: 16 h
How it was run: (§2)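 Peptides were serially diluted twofold in Mueller-Hinton medium and combined 1:1 with bacterial suspensions prepared at 2×10^6 CFU. Readout was the minimal inhibitory concentration, i.e. the lowest concentration with no growth.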

MDREC 1229 = assay: microbe, parasite or virus in culture; type: cell-based, Escherichia coli
How it was run: as §2

MDRST 8009 = type: cell-based, Salmonella typhimurium; settings: agent alone
How it was run: as §2

A. baumannii = assay: MIC of antibiotic during combined treatment with antimicrobial peptide; type: cell-based, Acinetobacter baumannii; settings: for Antibiotic MIC, Erythromycin / Antibiotic MIC, Linezolid / Antibiotic MIC, Vancomycin: A. baumannii
How it was run: as §1

[3] = erythromycin combined with peptide at 1 μg/ml
[4] = erythromycin combined with peptide at 2 μg/ml
[5] = erythromycin combined with peptide at 4 μg/ml
[6] = erythromycin combined with peptide at 6 μg/ml
[7] = erythromycin combined with peptide at 8 μg/ml
[8] = erythromycin combined with peptide at 16 μg/ml
[9] = erythromycin combined with peptide at 32 μg/ml
[10] = erythromycin combined with peptide at 64 μg/ml
[11] = linezolid combined with peptide at 1 μg/ml
[12] = linezolid combined with peptide at 2 μg/ml
[13] = linezolid combined with peptide at 4 μg/ml
[14] = linezolid combined with peptide at 6 μg/ml
[15] = linezolid combined with peptide at 8 μg/ml
[16] = linezolid combined with peptide at 16 μg/ml
[17] = linezolid combined with peptide at 32 μg/ml
[18] = linezolid combined with peptide at 64 μg/ml
[19] = vancomycin combined with peptide at 1 μg/ml
[20] = vancomycin combined with peptide at 2 μg/ml
[21] = vancomycin combined with peptide at 4 μg/ml
[22] = vancomycin combined with peptide at 6 μg/ml
[23] = vancomycin combined with peptide at 8 μg/ml
[24] = vancomycin combined with peptide at 16 μg/ml
[25] = vancomycin combined with peptide at 32 μg/ml
[26] = vancomycin combined with peptide at 64 μg/ml
[27] = combined with peptide at 1 μg/ml
[28] = combined with peptide at 2 μg/ml
[29] = combined with peptide at 4 μg/ml
[30] = combined with peptide at 6 μg/ml
[31] = combined with peptide at 8 μg/ml
[32] = combined with peptide at 16 μg/ml
[33] = combined with peptide at 32 μg/ml
[34] = combined with peptide at 64 μg/ml

In the case of `CC[C@H](C)[C@H](NC(=O)[C@H](CCCCN)NC(=O)[C@H](Cc1c[nH]c2ccccc12)NC(=O)[C@@H](N)CCCNC(=N)N)C(=O)N[C@@H](Cc1ccccc1)C(=O)N[C@@H](CCCCN)C(=O)N[C@@H](CCCCN)C(=O)N[C@H](C(=O)N1CCC[C@H]1C(=O)N[C@@H](CCCCN)C(=O)N[C@@H](CC(C)C)C(=O)N[C@@H](CC(C)C)C(=O)N[C@@H](Cc1c[nH]cn1)C(=O)N[C@@H](CO)C(=O)N[C@@H](CC(C)C)C(=O)N[C@@H](CCCCN)C(=O)N[C@@H](CCCCN)C(=O)N[C@@H](Cc1c[nH]c2ccccc12)C(N)=O)[C@@H](C)CC` [PapMA-10, RWK IFK KIP KLL HSL KKW-NH2] (H-RWKIFKKIPKLLHSLKKW-NH2; N-terminus assumed), the “Synergistic effect of antibacterial activity with existing antibiotics compared with PapMA-1” value (E. coli [1]; E. coli and MDREC1229) is reported as “level similar to that of the PapMA-1 peptide”, the “Antibiotic MIC, Erythromycin” value (E. coli [1]; [3]) is reported as 128 µg/mL and the “Antibiotic MIC, Erythromycin” value (E. coli [1]; [4]) is reported as 64 µg/mL. For the same molecule, the “Antibiotic MIC, Erythromycin” value (E. coli [1]; [5]) was 32 µg/mL, the “Antibiotic MIC, Erythromycin” value (E. coli [1]; [6]) was 8 µg/mL and the “Antibiotic MIC, Erythromycin” value (E. coli [1]; [7]) was 0.5 µg/mL. For the same molecule, the “Antibiotic MIC, Erythromycin” value (E. coli [1]; [8]) was 0.25 µg/mL, the “Antibiotic MIC, Erythromycin” value (E. coli [1]; [9]) was 0 µg/mL and the “Antibiotic MIC, Erythromycin” value (E. coli [1]; [10]) was 0 µg/mL. The “Antibiotic MIC, Linezolid” value (E. coli [1]; [11]) was over 128 µg/mL, the “Antibiotic MIC, Linezolid” value (E. coli [1]; [12]) was over 128 µg/mL and the “Antibiotic MIC, Linezolid” value (E. coli [1]; [13]) was 128 µg/mL. The “Antibiotic MIC, Linezolid” value (E. coli [1]; [14]) was 64 µg/mL, the “Antibiotic MIC, Linezolid” value (E. coli [1]; [15]) was 8 µg/mL and the “Antibiotic MIC, Linezolid” value (E. coli [1]; [16]) was 4 µg/mL. The “Antibiotic MIC, Linezolid” value (E. coli [1]; [17]) was 0 µg/mL, the “Antibiotic MIC, Linezolid” value (E. coli [1]; [18]) was 0 µg/mL and the “Antibiotic MIC, Vancomycin” value (E. coli [1]; [19]) was over 128 µg/mL. The “Antibiotic MIC, Vancomycin” value (E. coli [1]; [20]) was over 128 µg/mL, the “Antibiotic MIC, Vancomycin” value (E. coli [1]; [21]) was 64 µg/mL and the “Antibiotic MIC, Vancomycin” value (E. coli [1]; [22]) was 32 µg/mL. The “Antibiotic MIC, Vancomycin” value (E. coli [1]; [23]) was 16 µg/mL, the “Antibiotic MIC, Vancomycin” value (E. coli [1]; [24]) was 2 µg/mL and the “Antibiotic MIC, Vancomycin” value (E. coli [1]; [25]) was 0 µg/mL. For the same molecule, the “Antibiotic MIC, Vancomycin” value (E. coli [1]; [26]) was 0 µg/mL, the “Minimal inhibitory concentration MIC” value (E. coli [2]) was 32 µg/mL (≈ 13.6 µM) and the “Antibacterial activity relative to PapMA-1” value (E. coli [2]; E. coli) was “at least twice as high”. For the same molecule, the “Minimal inhibitory concentration MIC” value (MDREC 1229) was 64 µg/mL (≈ 27.2 µM), the “Minimal inhibitory concentration MIC” value (MDRST 8009) was 32 µg/mL (≈ 13.6 µM) and the “Synergistic effect of antibacterial activity with existing antibiotics compared with PapMA-1” value (A. baumannii; A. baumannii and MDRAB 12035) was “level similar to that of PapMA-1 peptide”. For the same molecule, the “Antibiotic MIC, Erythromycin” value (A. baumannii; [27]) was 32 µg/mL, the “Antibiotic MIC, Linezolid” value (A. baumannii; [27]) was over 128 µg/mL and the “Antibiotic MIC, Vancomycin” value (A. baumannii; [27]) was over 128 µg/mL. The “Antibiotic MIC, Erythromycin” value (A. baumannii; [28]) was 16 µg/mL, the “Antibiotic MIC, Linezolid” value (A. baumannii; [28]) was 128 µg/mL and the “Antibiotic MIC, Vancomycin” value (A. baumannii; [28]) was 64 µg/mL. The “Antibiotic MIC, Erythromycin” value (A. baumannii; [29]) was 8 µg/mL, the “Antibiotic MIC, Linezolid” value (A. baumannii; [29]) was 64 µg/mL and the “Antibiotic MIC, Vancomycin” value (A. baumannii; [29]) was 16 µg/mL. The “Antibiotic MIC, Erythromycin” value (A. baumannii; [30]) was 2 µg/mL, the “Antibiotic MIC, Linezolid” value (A. baumannii; [30]) was 32 µg/mL and the “Antibiotic MIC, Vancomycin” value (A. baumannii; [30]) was 16 µg/mL. The “Antibiotic MIC, Erythromycin” value (A. baumannii; [31]) was 0.5 µg/mL, the “Antibiotic MIC, Linezolid” value (A. baumannii; [31]) was 8 µg/mL and the “Antibiotic MIC, Vancomycin” value (A. baumannii; [31]) was 4 µg/mL. For the same molecule, the “Antibiotic MIC, Erythromycin” value (A. baumannii; [32]) was 0 µg/mL, the “Antibiotic MIC, Linezolid” value (A. baumannii; [32]) was 0 µg/mL and the “Antibiotic MIC, Vancomycin” value (A. baumannii; [32]) was 0 µg/mL. For the same molecule, the “Antibiotic MIC, Erythromycin” value (A. baumannii; [33]) was 0 µg/mL, the “Antibiotic MIC, Linezolid” value (A. baumannii; [33]) was 0 µg/mL and the “Antibiotic MIC, Vancomycin” value (A. baumannii; [33]) was 0 µg/mL. For the same molecule, the “Antibiotic MIC, Erythromycin” value (A. baumannii; [34]) was 0 µg/mL, the “Antibiotic MIC, Linezolid” value (A. baumannii; [34]) was 0 µg/mL and the “Antibiotic MIC, Vancomycin” value (A. baumannii; [34]) was 0 µg/mL.

For `CC[C@H](C)[C@H](NC(=O)[C@H](CCCCN)NC(=O)[C@H](Cc1c[nH]c2ccccc12)NC(=O)[C@@H](N)CCCNC(=N)N)C(=O)N[C@@H](Cc1ccccc1)C(=O)N[C@@H](CCCCN)C(=O)N[C@@H](CCCCN)C(=O)N[C@H](C(=O)N1CCC[C@H]1C(=O)N[C@@H](CCCCN)C(=O)N[C@@H](Cc1ccccc1)C(=O)N[C@@H](CC(C)C)C(=O)N[C@@H](Cc1c[nH]cn1)C(=O)N[C@@H](CO)C(=O)N[C@@H](C)C(=O)N[C@@H](CCCCN)C(=O)N[C@@H](CCCCN)C(=O)N[C@@H](Cc1ccccc1)C(N)=O)[C@@H](C)CC` [PapMA-1, RWK IFK KIP KFL HSA KKF-NH2] (H-RWKIFKKIPKFLHSAKKF-NH2; N-terminus assumed), the “Antibiotic MIC, Erythromycin” value (E. coli [1]; [3]) was 64 µg/mL, the “Antibiotic MIC, Erythromycin” value (E. coli [1]; [4]) was 32 µg/mL and the “Antibiotic MIC, Erythromycin” value (E. coli [1]; [5]) was 16 µg/mL. For the same molecule, the “Antibiotic MIC, Erythromycin” value (E. coli [1]; [6]) was 4 µg/mL, the “Antibiotic MIC, Erythromycin” value (E. coli [1]; [7]) was 2 µg/mL and the “Antibiotic MIC, Erythromycin” value (E. coli [1]; [8]) was 0.5 µg/mL. For the same molecule, the “Antibiotic MIC, Erythromycin” value (E. coli [1]; [9]) was 0.125 µg/mL, the “Antibiotic MIC, Erythromycin” value (E. coli [1]; [10]) was 0 µg/mL and the “Antibiotic MIC, Linezolid” value (E. coli [1]; [11]) was 128 µg/mL. The “Antibiotic MIC, Linezolid” value (E. coli [1]; [12]) was 128 µg/mL, the “Antibiotic MIC, Linezolid” value (E. coli [1]; [13]) was 64 µg/mL and the “Antibiotic MIC, Linezolid” value (E. coli [1]; [14]) was 16 µg/mL. For the same molecule, the “Antibiotic MIC, Linezolid” value (E. coli [1]; [15]) was 16 µg/mL, the “Antibiotic MIC, Linezolid” value (E. coli [1]; [16]) was 16 µg/mL and the “Antibiotic MIC, Linezolid” value (E. coli [1]; [17]) was 8 µg/mL. The “Antibiotic MIC, Linezolid” value (E. coli [1]; [18]) was 0 µg/mL, the “Antibiotic MIC, Vancomycin” value (E. coli [1]; [19]) was over 128 µg/mL and the “Antibiotic MIC, Vancomycin” value (E. coli [1]; [20]) was over 128 µg/mL. The “Antibiotic MIC, Vancomycin” value (E. coli [1]; [21]) was over 128 µg/mL, the “Antibiotic MIC, Vancomycin” value (E. coli [1]; [22]) was 32 µg/mL and the “Antibiotic MIC, Vancomycin” value (E. coli [1]; [23]) was 32 µg/mL. The “Antibiotic MIC, Vancomycin” value (E. coli [1]; [24]) was 16 µg/mL, the “Antibiotic MIC, Vancomycin” value (E. coli [1]; [25]) was 4 µg/mL and the “Antibiotic MIC, Vancomycin” value (E. coli [1]; [26]) was 0 µg/mL. The “Minimal inhibitory concentration MIC” value (E. coli [2]) was 64 µg/mL (≈ 27.8 µM), the “Minimal inhibitory concentration MIC” value (MDREC 1229) was 64 µg/mL (≈ 27.8 µM) and the “Peptide MIC, peptide alone” value (MDREC 1229) was 64 µg/mL. For the same molecule, the “Minimal inhibitory concentration MIC” value (MDRST 8009) was 64 µg/mL (≈ 27.8 µM), the “Antibiotic MIC, Erythromycin” value (A. baumannii; [27]) was 32 µg/mL and the “Antibiotic MIC, Linezolid” value (A. baumannii; [27]) was over 128 µg/mL. For the same molecule, the “Antibiotic MIC, Vancomycin” value (A. baumannii; [27]) was over 128 µg/mL, the “Antibiotic MIC, Erythromycin” value (A. baumannii; [28]) was 16 µg/mL and the “Antibiotic MIC, Linezolid” value (A. baumannii; [28]) was 128 µg/mL. The “Antibiotic MIC, Vancomycin” value (A. baumannii; [28]) was 128 µg/mL, the “Antibiotic MIC, Erythromycin” value (A. baumannii; [29]) was 8 µg/mL and the “Antibiotic MIC, Linezolid” value (A. baumannii; [29]) was 32 µg/mL. For the same molecule, the “Antibiotic MIC, Vancomycin” value (A. baumannii; [29]) was 32 µg/mL, the “Antibiotic MIC, Erythromycin” value (A. baumannii; [30]) was 2 µg/mL and the “Antibiotic MIC, Linezolid” value (A. baumannii; [30]) was 32 µg/mL. For the same molecule, the “Antibiotic MIC, Vancomycin” value (A. baumannii; [30]) was 16 µg/mL, the “Antibiotic MIC, Erythromycin” value (A. baumannii; [31]) was 0.5 µg/mL and the “Antibiotic MIC, Linezolid” value (A. baumannii; [31]) was 8 µg/mL. The “Antibiotic MIC, Vancomycin” value (A. baumannii; [31]) was 8 µg/mL, the “Antibiotic MIC, Erythromycin” value (A. baumannii; [32]) was 0.125 µg/mL and the “Antibiotic MIC, Linezolid” value (A. baumannii; [32]) was 4 µg/mL. For the same molecule, the “Antibiotic MIC, Vancomycin” value (A. baumannii; [32]) was 8 µg/mL, the “Antibiotic MIC, Erythromycin” value (A. baumannii; [33]) was 0.0625 µg/mL and the “Antibiotic MIC, Linezolid” value (A. baumannii; [33]) was 4 µg/mL. The “Antibiotic MIC, Vancomycin” value (A. baumannii; [33]) was 2 µg/mL, the “Antibiotic MIC, Erythromycin” value (A. baumannii; [34]) was 0 µg/mL and the “Antibiotic MIC, Linezolid” value (A. baumannii; [34]) was 0 µg/mL. The “Antibiotic MIC, Vancomycin” value (A. baumannii; [34]) was 0 µg/mL.

— patent US11214594B2, “Antimicrobial peptide having synergistic antibacterial effect with antibiotics on multidrug resistant bacteria, and use thereof” (priority 2016, dated 2022)
